Where a chain is given by its changes, count along the chain named. Like-named read-outs stand apart in the source and are kept apart here.
What was measured:
G254A-α1 GlyR = biological target: T1, G254A-α1 GlyR (Homo sapiens, UniProt P23415, G282A); assay: Whole-cell patch-clamp of glycine-induced currents, G254A-α1 GlyR mutant expressed in CHO cells; assay type: cell-based; settings: for inhibition at 30 µM / inhibition at 100 µM / inhibition at 300 µM: CHO, long application protocol, read-out: inhibition of G254A-α1 GlyR mediated currents; for inhibition at 30 µM: NFA 30 μM; for inhibition at 100 µM: NFA 100 μM; for inhibition at 300 µM: NFA 300 μM
T1 construct: expressed in transfected cells; host or cells: CHO cells
T1 sequence (P23415 29-449 isoform P23415-2 G282A limits assumed): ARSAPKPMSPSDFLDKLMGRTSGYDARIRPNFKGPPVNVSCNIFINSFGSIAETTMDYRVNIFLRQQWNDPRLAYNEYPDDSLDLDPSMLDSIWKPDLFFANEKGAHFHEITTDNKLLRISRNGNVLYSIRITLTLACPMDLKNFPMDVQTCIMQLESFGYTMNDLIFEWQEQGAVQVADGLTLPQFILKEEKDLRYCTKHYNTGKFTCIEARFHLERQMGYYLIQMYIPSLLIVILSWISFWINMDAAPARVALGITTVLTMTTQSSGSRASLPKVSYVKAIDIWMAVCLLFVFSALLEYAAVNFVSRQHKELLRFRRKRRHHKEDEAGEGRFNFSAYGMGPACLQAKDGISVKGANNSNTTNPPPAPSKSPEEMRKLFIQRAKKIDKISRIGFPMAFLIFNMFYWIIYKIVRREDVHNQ
Experimental: (§1) The experiments were carried out on cultured Chinese hamster ovary (CHO) cells obtained from the American Type Tissue Culture Collection (ATCC, Molsheim, France) that were maintained in culture conditions as previously described (Mukhtarov et al., [2013]; Maleeva et al., [2015]).
(§2) One day before transfection, cells were plated on the cover slips (12 mm in diameter) and placed inside 35-mm cell culture dishes with 2 ml of medium. Transfection was performed using the Lipofectamine 3000 protocol (Life Technology, USA). To facilitate identification of transfected cells a green fluorescent protein (GFP) was added to the transfection mixture. For expression of functional heteromeric receptors, cells were simultaneously transfected with cDNAs of α and β subunits in the ratio 1:10. Three hours after the initial exposure of cells to the cDNAs the culture medium was replaced with that containing strychnine (1 μM), which prevents spontaneous activation of GlyRs. Electrophysiological recordings were performed in the fluorescent cells 24–72 h after transfection.
(§3) Whole-cell and outside-out recordings were performed at room temperature (20–25°C) using an EPC-9 amplifier (HEKA Elektronik, Germany). Cells were continuously superfused with external solution containing (mM): NaCl 140, CaCl2 2, KCl 2.8, MgCl2 4, HEPES 20, glucose 10; pH 7.4; 320–330 mOsm. Intracellular solution used for filling recording patch pipettes contained (mM): CsCl 140, CaCl2 6, MgCl2 2, MgATP 2, NaGTP 0.4, HEPES/CsOH 10, BAPTA (tetrapotassium salt) 2; pH 7.3; 290 mOsm. Two different protocols of solutions application were used in this study. […] A “ramp protocol” implies the gradual change of Vhold alternately from −80 to +80 mV and from +80 to −80 mV during 1 s, Vhold was fixed at −80 or +80 mV at the beginning and at the end of the ramp for 500 ms (Figure 2B).
(§4) Recording pipettes were pulled from borosilicate glass capillaries (Harvard Apparatus Ltd, USA) and had resistances of 5–10 MOhm. For the rapid replacement of the solutions, the fast application system was used. Three parallel rectangular tubes (100 × 100 μm) were positioned 40–50 μm above the recorded cell. The movement of the tubes was controlled by a computer-driven fast exchange system (SF 77A Perfusion Fast-Step, Warner, USA) allowing a 10–90% solution exchange in 3–5 ms, as measured by open electrode controls (1/10 external solution/water). Cells with low input resistance (<150 MOhm) and a rapid run-down (>30% with repetitive application) were excluded from analysis.
(§5) Electrophysiological recordings were performed using PatchMaster (HEKA Electronic, Germany) software.
(§6) The fractional electrical distance from the external side of the membrane (δ) at which bound NFA blocked the current was calculated using the Woodhull equation: IC50(V)=IC50(0) exp (−δFV/RT), where IC50(V) is IC50 at the given membrane potential, IC50(0) – at 0 mV, V – membrane potential and F, R, T have their usual meanings. δ was determined from a plot of IC50 values against membrane potential.

homomeric α1 GlyR = biological target: T2, homomeric α1 GlyR (Homo sapiens, UniProt P23415); assay: Whole-cell patch-clamp of glycine-induced currents, α1 GlyR expressed in CHO cells; assay type: cell-based; settings: for inhibition at 30 µM / inhibition at 100 µM / inhibition at 300 µM: CHO, long protocol, read-out: inhibition of α1GlyR-mediated currents; for inhibition at 30 µM: NFA 30 μM; for inhibition at 100 µM: NFA 100 μM; for inhibition at 300 µM: NFA 300 μM
T2 construct: expressed in transfected cells; host or cells: CHO cells
T2 sequence (P23415 29-449 isoform P23415-2 limits assumed): T1 sequence (P23415 29-449 isoform P23415-2 G282A limits assumed) with A254G
Experimental: as §1, §2, §3, §4, §5, §6

[1] = +30 mV, glycine 30 μM, representative, read-out: NFA IC50 (representative IC50 curve)
[2] = +30 mV, glycine 100 μM, representative, read-out: NFA IC50 (representative IC50 curve)
[3] = +80 mV, glycine 30 μM, ramp protocol, mean ± SEM, read-out: IC50 of NFA
[4] = +80 mV, glycine 30 μM, representative, read-out: NFA IC50 (representative IC50 curve)
[5] = +80 mV, glycine 100 μM, representative, read-out: NFA IC50 (representative IC50 curve)
[6] = membrane potential 30 mV, glycine 30 μM
[7] = membrane potential 50 mV, glycine 30 μM
[8] = membrane potential 80 mV, glycine 30 μM
[9] = membrane potential −50 mV, glycine 30 μM
[10] = membrane potential −70 mV, glycine 30 μM
[11] = membrane potential −80 mV, glycine 30 μM
[12] = −30 mV, glycine 30 μM, representative, read-out: NFA IC50 (representative IC50 curve)
[13] = −30 mV, glycine 100 μM, representative, read-out: NFA IC50 (representative IC50 curve)
[14] = −80 mV, glycine 30 μM, representative, read-out: NFA IC50 (representative IC50 curve)
[15] = −80 mV, glycine 100 μM, representative, read-out: NFA IC50 (representative IC50 curve)

Work on O=C(O)c1cccnc1Nc1cccc(C(F)(F)F)c1 [NFA, Niflumic acid] yielded an IC50 (G254A-α1 GlyR; [1]) of 92 µM, an IC50 (G254A-α1 GlyR; [2]) of 106 µM and an IC50 (G254A-α1 GlyR; [3]) of 64 ± 10 µM. For the same compound, the IC50 (G254A-α1 GlyR; [4]) was 68 µM, the IC50 (G254A-α1 GlyR; [5]) was 57 µM and the inhibition at 30 µM (G254A-α1 GlyR; Vhold +30 mV, glycine 30 μM) was 23 ± 7%. The inhibition at 30 µM (G254A-α1 GlyR; Vhold −30 mV, glycine 30 μM) was 22 ± 4%, the inhibition at 100 µM (G254A-α1 GlyR; Vhold +30 mV, glycine 30 μM) was 43 ± 10% and the inhibition at 100 µM (G254A-α1 GlyR; Vhold −30 mV, glycine 30 μM) was 34 ± 6%. The inhibition at 300 µM (G254A-α1 GlyR; Vhold +30 mV, glycine 30 μM) was 76 ± 4%, the inhibition at 300 µM (G254A-α1 GlyR; Vhold −30 mV, glycine 30 μM) was 52 ± 11% and the IC50 (G254A-α1 GlyR; MP +80 mV, increased agonist concentration (glycine 100 μM), mean ± SEM, read-out: IC50 of NFA) was 58 ± 8 µM. The IC50 (G254A-α1 GlyR; at negative potentials, glycine 30 μM, ramp protocol, mean ± SEM, read-out: IC50 of NFA) was 257 ± 25 µM, the “level of the NFA binding site from the extracellular side” value (G254A-α1 GlyR; both examined agonist concentrations, Woodhull analysis) was ~ 30% and the “Fractional electrical distance (δ) from the extracellular side of the membrane” value (G254A-α1 GlyR; glycine 30 μM, Woodhull analysis) was 0.37 ± 0.04 (n = 9). The “Fractional electrical distance (δ) from the extracellular side of the membrane” value (G254A-α1 GlyR; glycine 100 μM, Woodhull analysis) was 0.30 ± 0.04 (n = 7), the “Hill coefficient (nH) of NFA interaction” value (G254A-α1 GlyR; [6]) was 1.3 ± 0.08 and the “Hill coefficient (nH) of NFA interaction” value (G254A-α1 GlyR; [7]) was 1.36 ± 0.11. The “Hill coefficient (nH) of NFA interaction” value (G254A-α1 GlyR; membrane potential 70 mV, glycine 30 μM) was 1.26 ± 0.1, the “Hill coefficient (nH) of NFA interaction” value (G254A-α1 GlyR; [8]) was 1.22 ± 0.09 and the “Hill coefficient (nH) of NFA interaction” value (G254A-α1 GlyR; [9]) was 1.37 ± 0.18. The “Hill coefficient (nH) of NFA interaction” value (G254A-α1 GlyR; [10]) was 1.34 ± 0.1, the “Hill coefficient (nH) of NFA interaction” value (G254A-α1 GlyR; [11]) was 1.46 ± 0.16 and the IC50 (G254A-α1 GlyR; [12]) was 185 µM. It also gave an IC50 (G254A-α1 GlyR; [13]) of 190 µM, an IC50 (G254A-α1 GlyR; [14]) of 230 µM and an IC50 (G254A-α1 GlyR; [15]) of 260 µM. The IC50 (homomeric α1 GlyR; [1]) was 218 µM, the IC50 (homomeric α1 GlyR; [2]) was 107 µM and the IC50 (homomeric α1 GlyR; [3]) was 197 ± 18 µM. For the same compound, the IC50 (homomeric α1 GlyR; [4]) was 178 µM, the IC50 (homomeric α1 GlyR; +80 mV, glycine 100 μM, ramp protocol, mean ± SEM, read-out: IC50 of NFA) was 90 ± 8 µM and the IC50 (homomeric α1 GlyR; [5]) was 94 µM. For the same compound, the inhibition at 30 µM (homomeric α1 GlyR; Vhold +30 mV, glycine 30 μM) was 16 ± 7%, the inhibition at 30 µM (homomeric α1 GlyR; Vhold −30 mV, glycine 30 μM) was 3 ± 4% and the inhibition at 100 µM (homomeric α1 GlyR; Vhold +30 mV, glycine 30 μM) was 43 ± 11%. For the same compound, the inhibition at 100 µM (homomeric α1 GlyR; Vhold −30 mV, glycine 30 μM) was 16 ± 6%, the inhibition at 300 µM (homomeric α1 GlyR; Vhold +30 mV, glycine 30 μM) was 75 ± 4% and the inhibition at 300 µM (homomeric α1 GlyR; Vhold −30 mV, glycine 30 μM) was 48 ± 9%. For the same compound, the “Hill coefficient (nH) of NFA interaction” value (homomeric α1 GlyR; glycine 30 μM) was 1.5 ± 0.11, the “decrease of IC50 at +80 mV versus −80 mV” value (homomeric α1 GlyR; glycine 100 μM) was “about 3 fold” and the “Hill coefficient (nH) of NFA interaction” value (homomeric α1 GlyR; [6]) was 1.87 ± 0.02. The “Hill coefficient (nH) of NFA interaction” value (homomeric α1 GlyR; [7]) was 1.55 ± 0.08, the “Hill coefficient (nH) of NFA interaction” value (homomeric α1 GlyR; [8]) was 1.28 ± 0.07 and the “Hill coefficient (nH) of NFA interaction” value (homomeric α1 GlyR; [9]) was 1.7 ± 0.08. For the same compound, the “Hill coefficient (nH) of NFA interaction” value (homomeric α1 GlyR; [10]) was 1.65 ± 0.08, the “Hill coefficient (nH) of NFA interaction” value (homomeric α1 GlyR; [11]) was 1.56 ± 0.07 and the “Hill coefficient (nH) of NFA inhibitory action” value (homomeric α1 GlyR; overall statement in discussion) was roughly 1.5. It also gave an IC50 (homomeric α1 GlyR; [12]) of 256 µM, an IC50 (homomeric α1 GlyR; [13]) of 171 µM and an IC50 (homomeric α1 GlyR; −80 mV, glycine 30 μM, ramp protocol, mean ± SEM, read-out: IC50 of NFA) of 315 ± 30 µM. For the same compound, the IC50 (homomeric α1 GlyR; [14]) was 272 µM, the IC50 (homomeric α1 GlyR; −80 mV, glycine 100 μM, ramp protocol, mean ± SEM, read-out: IC50 of NFA) was 270 ± 26 µM and the IC50 (homomeric α1 GlyR; [15]) was 209 µM.
